Data reported in PMC9814792 (Communications Chemistry, 2022).

Columns and labels:
[1] = Aqueous stability in phosphate buffer by UHPLC; format: physicochemical; details: for UHPLC peak integral, stability: method A
Procedure: (§1) For stability measurements BSO-OxOAc (1 mM) was dissolved in phosphate buffer (100 mM, pH 7.4). For reduction experiments BSO-OxOAc (2 mM) was dissolved in phosphate buffer (500 mM, pH 7.4). A 20 mM solution of AA in the same buffer was added in a 1:1 ratio. The samples were immediately measured on a Dionex UltiMate 3000 RS UHPLC system equipped with a Waters Acquity UPLC® BEH C18 column (3×50 mm, pore size 1.7 µm), and absorption detection at 230 nm with incubation at 20 °C (Gradients: Method A: 0.0−0.5 min: 5% eluent B in eluent A; 0.5–5.5 min: 5-95% eluent B; 5.5–8.0 min: 95 % eluent B (eluent A = 0.1% formic acid in water, eluent B = 0.1 % formic acid in acetonitrile), method B: 0.0 − 0.5 min: 5% eluent B in eluent A; 0.5–5.5 min: 5-95% eluent B; 5.5–7.1 min: 95 % eluent B (eluent A = 0.1% formic acid in water, eluent B = 0.1 % formic acid in methanol). Data points were taken every 30 min for 6 h and at 24 h and 24.5 h.

[2] = Reduction kinetics with 10-fold excess of ascorbic acid by UHPLC; format: physicochemical; details: 10 mM AA; for UHPLC peak integral, reduction: method B
Procedure: as §1

[3] = biological target: T1, albumin (Bos taurus, UniProt P02769); assay: Albumin binding in fetal calf serum by SEC-ICP-MS; format: in vitro ADME; details: fetal calf serum 37 °C, 100 μM
T1 construct: tissue Sigma-Aldrich; host or cells: fetal calf serum
Procedure: Fetal calf serum was purchased from Sigma-Aldrich and buffered with 150 mM phosphate buffer (pH 7.4) to guarantee a stable pH. The platinum(IV) complexes were dissolved in 150 mM phosphate buffer (pH 7.4) to 1 mM and diluted 1:10 in serum to obtain a final concentration of 100 μM. The samples were then incubated in the autosampler at 37 °C for 24 h and analyzed at 0 h, 1 h, 4 h, and 24 h. Between each sample, a pure water blank was measured. For SEC-ICP-MS measurements, an Agilent 1260 Infinity system coupled to an Agilent 7800 ICP-MS equipped with a dynamic reaction cell was used. Oxygen (purity 5.5, Messer AustriaGmbH, Gumpoldskirchen, Austria) was used as reaction gas at 30% and 0.9 L/min flow.

[4] = test system: HCT116/OxR cells; assay: 72 h cell viability (MTT) assay; format: cell-based, human
Procedure: Absorbance was measured at 450 nm (at 620 nm as reference) using the multimode plate reader Tecan Infinite 200 Pro (Zurich, Switzerland). Cytotoxicity was expressed as IC50 values calculated from full dose-response curves using the 4 parameter nonlinear regression model of GraphPad Prism 8 software (La Jolla, CA, USA).

[5] = test system: HCT116, HCT116/OxR, A2780, A2780/Cis cells; assay: 72 h cell viability (MTT) assay, all malignant cell models; format: cell-based, human
Procedure: (§2) Cells were seeded (3–4 ×10^3 cells/well) in 96-well plates in 100 µL and after 24 h recovery treated with 100 µL of compounds at the indicated concentrations in triplicates. After 72 h drug exposure cell viability was determined by 3-(4,5-dimethylthiazol-2-yl)-2,5-diphenyltetrazolium bromide (MTT)-vitality assay (EZ4U, Biomedica, Vienna, Austria) following the manufacturer’s recommendations, as published. Absorbance was measured at 450 nm (at 620 nm as reference) using the multimode plate reader Tecan Infinite 200 Pro (Zurich, Switzerland). Cytotoxicity was expressed as IC50 values calculated from full dose-response curves using the 4 parameter nonlinear regression model of GraphPad Prism 8 software (La Jolla, CA, USA).

[6] = test system: CT26 cells; assay: 72 h cell viability (MTT) assay; format: cell-based, murine; details: CT26, 72 h
Procedure: as §2

[7] = test system: A2780 cells; assay: 72 h cell viability (MTT) assay; format: cell-based, human; details: A2780, 72 h continuous exposure; read-out: IC50 value (95% confidence interval)
Procedure: as §2

[8] = test system: A2780/Cis cells; assay: 72 h cell viability (MTT) assay; format: cell-based, human
Procedure: as §2

[9] = test system: HCT116 cells; assay: 72 h cell viability (MTT) assay; format: cell-based, human; details: HCT116, 72 h continuous exposure; read-out: IC50 value (95% confidence interval)
Procedure: as §2

[10] = test system: HCT116 and HCT116/OxR cells; assay: Cellular GSH content (GSH/GSSG-Glo); format: cell-based, human; details: 24 h exposure, single agent
Procedure: GSH levels in HCT116 and HCT116/OxR cells (7.5 × 10^4 cells per well in 96-well plates, in triplicate), or in CT26 tumor tissues (25–50 mg/sample) were determined using the luminescence-based detection system GSH/GSSG-Glo^TM assay (Promega, Madison, WI) following the manufacturer’s recommendations. Quantifications are based on the comparison with a GSH standard curve delivered in the assay and normalized to the total protein content of the samples determined by the Micro BCA^TM protein assay kit (Thermo Scientific).

[11] = test system: CT26 allografts; assay: In vivo anticancer activity, CT26 allografts; set-up: species or system BALB/c mice
Procedure: Eight-to nine-week-old female BALB/c mice bred in-house (originally Janvier) were kept in pathogen-free conditions and controlled environment with 12 h light-dark cycle. CT26 cells (5 × 10^5 in 50 µL serum-free RPMI medium) were injected subcutaneously (s.c.) into the right flank of the animals. […] Tumor growth was evaluated by daily recording of tumor size by caliper measurement. […] The reasons were primarily either enhanced tumor size or ulceration. For drug distribution (digestion and ICP-MS measurement details see below), histological and GSH determination experiments, mice were treated twice during one week and sacrificed 24 h after the last drug dosing. The animal experiments were performed according to the regulations of the Ethics Committee for the Care and Use of Laboratory Animals at the Medical University Vienna (proposal number BMBWF-V/3b 2020-0.380.502).

T1 sequence (P02769 25-607): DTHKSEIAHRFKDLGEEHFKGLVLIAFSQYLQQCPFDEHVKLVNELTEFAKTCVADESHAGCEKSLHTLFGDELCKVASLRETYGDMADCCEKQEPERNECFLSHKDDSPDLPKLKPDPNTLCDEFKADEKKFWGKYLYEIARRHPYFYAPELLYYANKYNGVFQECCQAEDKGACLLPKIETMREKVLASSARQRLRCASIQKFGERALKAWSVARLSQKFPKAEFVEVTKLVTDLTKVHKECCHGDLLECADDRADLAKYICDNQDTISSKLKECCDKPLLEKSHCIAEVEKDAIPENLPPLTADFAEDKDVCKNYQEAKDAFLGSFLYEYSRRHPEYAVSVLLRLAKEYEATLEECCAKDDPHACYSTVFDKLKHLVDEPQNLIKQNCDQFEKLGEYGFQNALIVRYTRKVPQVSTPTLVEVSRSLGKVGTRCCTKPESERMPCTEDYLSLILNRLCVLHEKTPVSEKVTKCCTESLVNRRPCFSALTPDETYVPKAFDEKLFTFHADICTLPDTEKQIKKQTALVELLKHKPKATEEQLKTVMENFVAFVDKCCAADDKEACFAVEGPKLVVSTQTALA

In the case of CCCCS(=N)(=O)CCC(NC(=O)[O][Pt]1([O]C(C)=O)[O]C(=O)C(=O)[O]1)C(=O)O.NC1CCCCC1N (mixture of isomers) [BSO-OxOAc, (OC-6-34)-Acetato(((1 S)-3-(butylsulfonimidoyl)-1-carboxypropyl)carbamato)((1 R,2 R)-1,2-cyclohexanediamino)oxalatoplatinum(IV)], the “calculated half-life, aqueous stability” value ([1]; 1 mM, 100 mM phosphate buffer pH 7.4, 20 °C) is reported as ~ 240 h, the “UHPLC peak integral, stability” value ([1]; t=0, 1 mM) is reported as 70.47 mAU and the “UHPLC peak integral, stability” value ([1]; t=24 h, 1 mM) is reported as 66.25 mAU. The t½ reduction kinetics ([2]; 1 mM complex, 500 mM phosphate buffer pH 7.4, 20 °C) was ~ 51 h, the “UHPLC peak integral, reduction” value ([2]; t=0, 1 mM) was 11.87 mAU and the “UHPLC peak integral, reduction” value ([2]; t=24 h, 1 mM) was 9.1 mAU. The “bound to albumin fraction” value ([3]; t 0 h) was 0%, the “free (low molecular weight fraction)” value ([3]; t 0 h) was 100% and the “bound to albumin fraction” value ([3]; t 1 h) was 0%. For the same compound, the “free (low molecular weight fraction)” value ([3]; t 1 h) was 100%, the “bound to albumin fraction” value ([3]; t 4 h) was 0% and the “free (low molecular weight fraction)” value ([3]; t 4 h) was 100%. The “bound to albumin fraction” value ([3]; t 24 h) was 0%, the “free (low molecular weight fraction)” value ([3]; t 24 h) was 100% and the IC50 ([4]; HCT116/OxR, 72 h continuous exposure, read-out: IC50 value (95% confidence interval)) was 95.5 µM. For the same compound, the resistance factor ([4]; IC50 HCT116/OxR divided by IC50 HCT116) was 2.9, the “enhancement of IC50 values as compared to oxaliplatin” value [5] was 10- to 50 fold and the “higher IC50 value as compared to oxaliplatin” value [6] was over 58 fold. The IC50 [7] was 20.6 µM, the IC50 ([8]; A2780/Cis, 72 h continuous exposure, read-out: IC50 value (95% confidence interval)) was 28.5 µM and the resistance factor ([8]; IC50 A2780/Cis divided by IC50 A2780) was 1.4. The IC50 [9] was 32.1 µM, the “impact on cellular GSH content” value [10] was “moderately” and the “tumor doubling time extended” value ([11]; CT26 allografts, twice a week for two weeks, equimolar doses) was 1.2 fold. The “maximal tumor growth inhibition” value ([11]; day 11, CT26 allografts, twice a week for two weeks, equimolar to 9 mg/kg oxaliplatin i.v.) was 51.3% and the “tumor volumes as compared to solvent controls” value ([11]; first two weeks of treatment) was “significantly reduced tumor volumes”.
